Assay [1] addresses T1, Estrogen receptor beta (Homo sapiens, UniProt Q92731).
The target of assay [2] is T2, Estrogen receptor (Homo sapiens, UniProt P03372).
T2 sequence (P03372 whole entry): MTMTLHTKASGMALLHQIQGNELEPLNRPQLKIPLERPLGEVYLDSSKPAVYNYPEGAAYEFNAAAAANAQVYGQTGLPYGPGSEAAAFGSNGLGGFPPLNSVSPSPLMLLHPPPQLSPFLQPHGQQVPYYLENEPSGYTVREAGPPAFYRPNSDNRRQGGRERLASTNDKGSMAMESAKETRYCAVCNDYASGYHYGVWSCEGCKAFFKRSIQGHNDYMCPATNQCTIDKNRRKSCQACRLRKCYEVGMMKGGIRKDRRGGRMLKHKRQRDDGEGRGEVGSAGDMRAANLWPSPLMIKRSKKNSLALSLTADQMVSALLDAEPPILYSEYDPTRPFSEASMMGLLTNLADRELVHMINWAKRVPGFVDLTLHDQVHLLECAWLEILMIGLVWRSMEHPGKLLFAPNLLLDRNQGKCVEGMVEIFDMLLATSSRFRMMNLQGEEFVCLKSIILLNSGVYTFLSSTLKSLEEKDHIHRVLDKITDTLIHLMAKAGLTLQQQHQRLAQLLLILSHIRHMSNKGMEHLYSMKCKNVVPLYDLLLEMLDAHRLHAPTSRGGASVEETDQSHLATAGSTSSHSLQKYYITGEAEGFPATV
Description: Binding affinity for human estrogen receptor alpha

In assay [3] the target is Estrogen receptor (Homo sapiens, UniProt Q92731+P03372). Particulars: ishikawa.
In assay [4] the target is T3, Estrogen receptor (Homo sapiens) (UniProt P03372).
T3 sequence (whole entry): T2 sequence (P03372 whole entry)
Description: Mean fluorescence intensity corrected to basal for GW-5638 selective peptide binding to human estrogen receptor alpha

The target of assay [5] is T1, Estrogen receptor beta. The experiment in a line: Binding affinity for human estrogen receptor beta.

T1 sequence (Q92731 whole entry): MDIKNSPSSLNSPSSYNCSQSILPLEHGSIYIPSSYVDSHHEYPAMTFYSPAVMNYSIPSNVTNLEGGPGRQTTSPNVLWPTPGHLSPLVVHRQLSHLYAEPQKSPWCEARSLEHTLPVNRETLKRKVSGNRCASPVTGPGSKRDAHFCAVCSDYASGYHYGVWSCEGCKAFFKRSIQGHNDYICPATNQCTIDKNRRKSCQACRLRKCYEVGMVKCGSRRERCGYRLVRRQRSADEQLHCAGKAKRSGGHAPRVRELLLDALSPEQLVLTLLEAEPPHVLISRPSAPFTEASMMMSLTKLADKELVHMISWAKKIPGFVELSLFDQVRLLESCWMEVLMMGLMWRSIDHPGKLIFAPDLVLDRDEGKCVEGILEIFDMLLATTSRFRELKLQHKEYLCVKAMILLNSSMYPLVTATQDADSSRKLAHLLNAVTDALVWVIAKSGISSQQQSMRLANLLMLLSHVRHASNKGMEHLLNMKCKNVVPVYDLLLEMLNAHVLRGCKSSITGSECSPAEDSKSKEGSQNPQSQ

What is called Ki is the equilibrium dissociation constant of an inhibitor or competing ligand from its target. Consider `CCc1nc2cc(O)ccc2c(Oc2ccc(OCCN(C)C)cc2)c1-c1ccccc1`, for which the Ki is 10 nM in assay [1] and 7.94 nM in assay [2]. Further, in assay [3], the “Log IC50” value is listed as -8.5. In assay [4], this compound registered an MFI of 0.

For `CCc1nc2cc(O)ccc2c(Oc2ccc(/C=C/C(=O)N(C)C)cc2)c1-c1ccccc1`, the results for the Ki in assay [1] and in assay [2] were 20 nM and 10 nM, respectively. Besides, in assay [3], the “Log IC50” value was -8.4. The compound also gave an MFI in assay [4] of 350.

Regarding `O=C(O)/C=C/c1ccc(Oc2c(-c3ccccc3)c(-c3ccccc3)nc3cc(O)ccc23)cc1`, the Ki in assay [1] is 631 nM; in assay [2], 3160 nM. Moreover, in assay [3], the “Log IC50” value was -5.6.

Turning to `CCc1nc2cc(O)ccc2c(Oc2ccc(/C=C/C(N)=O)cc2)c1-c1ccccc1`, the Ki in assay [1] was 25.1 nM; in assay [2] it was 15.8 nM. In assay [3], the “Log IC50” value was -7.1. The same compound yielded an MFI in assay [4] of 540.

With `CC/C(=C(\c1ccc(O)cc1)c1ccc(/C=C/C(=O)O)cc1)c1ccccc1`, the MFI in assay [4] came out at 1320.

Consider `CCc1nc2cc(O)ccc2c(Oc2ccc(/C=C/C(=O)N3CCCCC3)cc2)c1-c1ccccc1`, for which the Ki in assay [1] and in assay [2] was 25.1 nM in each case. In assay [3], the “Log IC50” value is -8.4. The same compound registered an MFI in assay [4] of 390.

On to `CCc1nc2cc(O)ccc2c(Oc2ccc(/C=C/C(=O)NC(C)C)cc2)c1-c1ccccc1`, for which the Ki in assay [1] was 15.8 nM; in assay [2], 10 nM. For the same compound, in assay [3], the “Log IC50” value is -7.7. The MFI in assay [4] stood at 710.

In the case of `CCc1nc2cc(O)ccc2c(Oc2cccc(/C=C/C(=O)O)c2)c1-c1ccccc1`, the Ki in assay [2] and in assay [5] was 1580 nM each time.

For the compound `CCc1nc2cc(O)ccc2c(Oc2ccc(/C=C/C(=O)O)cc2)c1-c1ccccc1`, the MFI in assay [4] was 1380.

`CCc1nc2cc(O)ccc2c(Oc2ccc(/C=C/C(=O)O)cc2)c1-c1cccc(C(F)(F)F)c1`: the figures for the Ki in assay [1] and in assay [2] were 251 nM and 100 nM, respectively. Besides, the “Log IC50” value in assay [3] was -8.1. The compound further displayed an MFI in assay [4] of 1590.
